# From ChEMBL document CHEMBL1141373 (J Med Chem, 2007)
# Calls of active or inactive are those of the source. The calls are words filed in the database; no cut-off is given here.
# How the values were obtained:
# [1] = biological target: T1, Glutamate receptor ionotropic, NMDA 2B (Homo sapiens, UniProt Q05586+Q13224); assay: Displacement of [3H](E)-N1-(2-methoxybenzyl)cinnamamidine from human NR2B expressed in Ltk- cells; type: cell-based
# [2] = biological target: Cytochrome P450 2D6 (Homo sapiens, UniProt P10635); assay: Inhibition of CYP2D6 in human liver microsomes
# [3] = biological target: Cytochrome P450 3A4 (Homo sapiens, UniProt P08684); assay: Inhibition of CYP3A4 in human liver microsomes
# [4] = biological target: Cytochrome P450 2C9 (Homo sapiens, UniProt P11712)
# Description: Inhibition of CYP2C9 in human liver microsomes
# [5] = Plasma concentration in rat at 30 mg/kg, po after 1 hr; type: ADME, organism-based; design: dose 30 mg/kg, route oral
# [6] = Drug level in rat brain at 30 mg/kg, po after 1 hr; type: ADME, organism-based; design: dose 30 mg/kg, route oral; conditions: read-out: Drug uptake
# [7] = biological target: Voltage-gated inwardly rectifying potassium channel KCNH2 (Homo sapiens, UniProt Q12809)
# Description: Displacement of [35S]MK-499 from hERG potassium channel expressed in HEK293 cells
# [8] = biological target: T1, Glutamate receptor ionotropic, NMDA 2B; assay: Antagonist activity at human NR2B expressed in Ltk- cells by calcium flux assay; type: functional, cell-based
# [9] = biological target: Glutamate receptor ionotropic, NMDA 2A (Homo sapiens, UniProt Q05586+Q12879); assay: Activity at human NR2A expressed in Ltk- cells by calcium flux assay; type: cell-based
# [10] = Cmax in Beagle dog at 1 mg/kg, po; type: ADME, organism-based, Canis lupus familiaris; design: dose 1 mg/kg, route oral; conditions: in vivo
# [11] = Half life in Beagle dog at 0.5 mg/kg, iv; type: ADME, organism-based, Canis lupus familiaris; design: dose 0.5 mg/kg, route intravenous; conditions: in vivo
# [12] = test system: Canis familiaris; assay: AUC in Beagle dog at 0.5 mg/kg, iv; type: ADME, organism-based, Canis lupus familiaris, Plasma; design: dose 0.5 mg/kg, route intravenous; conditions: in vivo
# [13] = species on record: Homo sapiens; assay: Selectivity for human NR2B over hERG
# [14] = test system: Rattus norvegicus; assay: Reversal of carrageenan-induced mechanical hyperalgesia in iv dosed rat; type: functional
# [15] = Cmax in Sprague-Dawley rat at 10 mg/kg, po; type: ADME, organism-based; design: dose 10 mg/kg, route oral; conditions: in vivo
# [16] = test system: Rattus norvegicus; assay: AUC in Sprague-Dawley rat at 2 mg/kg, iv; type: ADME, organism-based, Plasma; design: dose 2 mg/kg, route intravenous; conditions: in vivo
# [17] = Half life in Sprague-Dawley rat at 2 mg/kg, iv; type: ADME, organism-based; design: dose 2 mg/kg, route intravenous; conditions: in vivo
# [18] = Oral bioavailability in Beagle dog at 1 mg/kg, po; type: ADME, organism-based, Canis lupus familiaris; conditions: in vivo
# [19] = test system: Rattus norvegicus; assay: Reversal of carrageenan-induced mechanical hyperalgesia in po dosed rat; type: functional
# [20] = Oral bioavailability in Sprague-Dawley rat at 10 mg/kg, po; type: ADME, organism-based; conditions: in vivo
# [21] = Cmax in rhesus monkey at 1 mg/kg, po; type: ADME, organism-based, Macaca mulatta; design: dose 1 mg/kg, route oral; conditions: in vivo
# [22] = Plasma protein binding in rat; type: ADME, cell-free; conditions: read-out: PPB (converted)
# [23] = test system: Rattus norvegicus; assay: Reversal of carrageenan-induced mechanical hyperalgesia in iv dosed rat after 15 mins; type: functional
# [24] = biological target: Glutamate receptor ionotropic, NMDA 2A (Homo sapiens) (UniProt Q12879); assay: Activity at human NR2A expressed in Ltk- cells by patch clamp assay upto 30 uM; type: cell-based
# [25] = biological target: Glutamate receptor ionotropic, NMDA 2D (Homo sapiens) (UniProt O15399); assay: Activity at human NR2D expressed in Ltk- cells by patch clamp assay upto 30 uM; type: cell-based
# [26] = Drug level in hyperalgesic rat plasma at 1 mg/kg, po after 15 mins; type: ADME, organism-based; design: dose 1 mg/kg, route oral
# [27] = Half life in rhesus monkey at 1 mg/kg, iv; type: ADME, organism-based, Macaca mulatta; design: dose 1 mg/kg, route intravenous; conditions: in vivo
# [28] = test system: Rhesus monkey; assay: AUC in rhesus monkey at 1 mg/kg, iv; type: ADME, organism-based, Macaca mulatta, Plasma; design: dose 1 mg/kg, route intravenous; conditions: in vivo
# [29] = Ratio of drug level in brain against plasma in hyperalgesic rat
# [30] = test system: Rattus norvegicus; assay: Reversal of allodynia in rat spinal nerve ligation model at 3 mg/kg, iv; type: functional, organism-based; design: dose 3 mg/kg
# [31] = test system: Ltk-; assay: Activity at human NR1a expressed in Ltk- cells by patch clamp assay upto 30 uM; type: cell-based
# [32] = test system: Rattus norvegicus; assay: Reversal of carrageenan-induced mechanical hyperalgesia in rat at 3 mg/kg, po in presence of indomethacin; type: functional, organism-based; design: dose 3 mg/kg
# [33] = test system: Rattus norvegicus; assay: […] in rat measured as motor impairment upto 100 mg/kg, po by rotarod assay; type: functional, organism-based; design: dose 100 mg/kg
# [34] = Drug level in hyperalgesic rat brain at 10 mg/kg, po after 1 hr; type: ADME, organism-based; design: dose 10 mg/kg, route oral; conditions: read-out: Drug uptake
# [35] = Drug level in hyperalgesic rat plasma at 10 mg/kg, po after 1 hr; type: ADME, organism-based; design: dose 10 mg/kg, route oral
# [36] = test system: Rattus norvegicus; assay: Reversal of carrageenan-induced mechanical hyperalgesia in rat at 3 mg/kg, po in presence of morphine; type: functional, organism-based; design: dose 3 mg/kg
# [37] = Half life in Beagle dog at 1 mg/kg, iv; type: ADME, organism-based, Canis lupus familiaris; design: dose 1 mg/kg, route intravenous; conditions: in vivo
# [38] = biological target: Glutamate receptor ionotropic, NMDA 2B (Rattus norvegicus) (UniProt Q00960); assay: Receptor occupancy ex vivo by displacement of [3H](E)-N1-(2-methoxybenzyl)-cinnamamidine binding from NR2B in rat brain at 10 uM; type: tissue-based
# [39] = biological target: Glutamate receptor ionotropic, NMDA 2C (Homo sapiens) (UniProt Q14957); assay: Activity at human NR2C expressed in Ltk- cells by patch clamp assay upto 30 uM; type: cell-based
# [40] = test system: Canis familiaris; assay: AUC in Beagle dog at 1 mg/kg, iv; type: ADME, organism-based, Canis lupus familiaris, Plasma; design: dose 1 mg/kg, route intravenous; conditions: in vivo
# [41] = test system: Rattus norvegicus; assay: Plasma concentration in haloperidol-induced cataleptic rat at 30 mg/kg, po; type: ADME, organism-based; design: dose 30 mg/kg, route oral; conditions: in vivo
# [42] = Oral bioavailability in rhesus monkey at 1 mg/kg, po; type: ADME, organism-based, Macaca mulatta; conditions: in vivo
# [43] = test system: Rattus norvegicus; assay: Reversal of allodynia in rat spinal nerve ligation model at 10 mg/kg, iv; type: functional, organism-based; design: dose 10 mg/kg
# [44] = Drug level in hyperalgesic rat brain at 1 mg/kg, po after 15 mins; type: ADME, organism-based; design: dose 1 mg/kg, route oral; conditions: read-out: Drug uptake
# [45] = test system: Rattus norvegicus; assay: Reversal of carrageenan-induced mechanical hyperalgesia in rat at 10 mg/kg, po after 1 hr; type: functional
# [46] = test system: Rattus norvegicus; assay: Effect on allodynia in rat spinal nerve ligation model at 30 mg/kg, po; type: functional, organism-based; design: dose 30 mg/kg
# Sequence of Cytochrome P450 3A4 (P08684 whole entry): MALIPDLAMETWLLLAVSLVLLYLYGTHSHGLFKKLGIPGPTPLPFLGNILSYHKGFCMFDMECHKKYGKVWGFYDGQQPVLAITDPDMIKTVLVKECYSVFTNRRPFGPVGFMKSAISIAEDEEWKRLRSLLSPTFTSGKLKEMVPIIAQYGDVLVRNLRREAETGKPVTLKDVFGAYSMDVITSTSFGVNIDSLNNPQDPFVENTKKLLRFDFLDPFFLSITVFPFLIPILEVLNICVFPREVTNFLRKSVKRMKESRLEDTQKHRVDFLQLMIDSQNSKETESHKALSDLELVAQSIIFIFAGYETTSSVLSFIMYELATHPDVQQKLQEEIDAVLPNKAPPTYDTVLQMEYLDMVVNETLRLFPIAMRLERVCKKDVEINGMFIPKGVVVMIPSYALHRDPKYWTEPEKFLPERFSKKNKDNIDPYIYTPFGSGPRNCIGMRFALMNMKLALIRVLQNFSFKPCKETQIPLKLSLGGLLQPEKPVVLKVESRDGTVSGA
# Sequence of Cytochrome P450 2D6 (P10635 whole entry): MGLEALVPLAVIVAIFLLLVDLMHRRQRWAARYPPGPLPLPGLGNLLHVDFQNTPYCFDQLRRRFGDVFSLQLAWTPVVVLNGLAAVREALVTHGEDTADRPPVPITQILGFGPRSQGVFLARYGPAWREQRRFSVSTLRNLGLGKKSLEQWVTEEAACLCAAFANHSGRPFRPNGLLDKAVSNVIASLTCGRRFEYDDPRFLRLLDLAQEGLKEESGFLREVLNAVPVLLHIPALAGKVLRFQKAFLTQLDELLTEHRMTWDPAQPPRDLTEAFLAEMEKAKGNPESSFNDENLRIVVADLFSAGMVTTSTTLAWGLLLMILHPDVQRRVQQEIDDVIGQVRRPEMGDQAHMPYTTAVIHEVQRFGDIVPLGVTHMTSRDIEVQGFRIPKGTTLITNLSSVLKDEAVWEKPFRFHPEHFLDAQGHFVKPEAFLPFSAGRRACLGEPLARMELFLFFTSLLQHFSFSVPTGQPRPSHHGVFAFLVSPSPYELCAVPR
# Sequence of Cytochrome P450 2C9 (P11712 whole entry): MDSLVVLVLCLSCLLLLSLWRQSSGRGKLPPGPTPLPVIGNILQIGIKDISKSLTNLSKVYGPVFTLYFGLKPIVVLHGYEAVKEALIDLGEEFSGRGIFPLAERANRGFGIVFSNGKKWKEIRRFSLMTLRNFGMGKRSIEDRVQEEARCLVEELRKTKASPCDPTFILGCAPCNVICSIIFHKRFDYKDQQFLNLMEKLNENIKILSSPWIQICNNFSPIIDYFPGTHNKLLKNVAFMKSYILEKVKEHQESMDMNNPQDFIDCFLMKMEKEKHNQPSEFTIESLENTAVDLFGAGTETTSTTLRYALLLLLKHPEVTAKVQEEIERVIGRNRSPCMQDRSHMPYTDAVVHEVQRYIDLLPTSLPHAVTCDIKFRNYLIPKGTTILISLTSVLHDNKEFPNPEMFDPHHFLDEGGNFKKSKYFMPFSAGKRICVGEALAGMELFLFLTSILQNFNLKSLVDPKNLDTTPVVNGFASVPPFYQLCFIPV
# T1 sequence (Q13224 whole entry, one chain of several): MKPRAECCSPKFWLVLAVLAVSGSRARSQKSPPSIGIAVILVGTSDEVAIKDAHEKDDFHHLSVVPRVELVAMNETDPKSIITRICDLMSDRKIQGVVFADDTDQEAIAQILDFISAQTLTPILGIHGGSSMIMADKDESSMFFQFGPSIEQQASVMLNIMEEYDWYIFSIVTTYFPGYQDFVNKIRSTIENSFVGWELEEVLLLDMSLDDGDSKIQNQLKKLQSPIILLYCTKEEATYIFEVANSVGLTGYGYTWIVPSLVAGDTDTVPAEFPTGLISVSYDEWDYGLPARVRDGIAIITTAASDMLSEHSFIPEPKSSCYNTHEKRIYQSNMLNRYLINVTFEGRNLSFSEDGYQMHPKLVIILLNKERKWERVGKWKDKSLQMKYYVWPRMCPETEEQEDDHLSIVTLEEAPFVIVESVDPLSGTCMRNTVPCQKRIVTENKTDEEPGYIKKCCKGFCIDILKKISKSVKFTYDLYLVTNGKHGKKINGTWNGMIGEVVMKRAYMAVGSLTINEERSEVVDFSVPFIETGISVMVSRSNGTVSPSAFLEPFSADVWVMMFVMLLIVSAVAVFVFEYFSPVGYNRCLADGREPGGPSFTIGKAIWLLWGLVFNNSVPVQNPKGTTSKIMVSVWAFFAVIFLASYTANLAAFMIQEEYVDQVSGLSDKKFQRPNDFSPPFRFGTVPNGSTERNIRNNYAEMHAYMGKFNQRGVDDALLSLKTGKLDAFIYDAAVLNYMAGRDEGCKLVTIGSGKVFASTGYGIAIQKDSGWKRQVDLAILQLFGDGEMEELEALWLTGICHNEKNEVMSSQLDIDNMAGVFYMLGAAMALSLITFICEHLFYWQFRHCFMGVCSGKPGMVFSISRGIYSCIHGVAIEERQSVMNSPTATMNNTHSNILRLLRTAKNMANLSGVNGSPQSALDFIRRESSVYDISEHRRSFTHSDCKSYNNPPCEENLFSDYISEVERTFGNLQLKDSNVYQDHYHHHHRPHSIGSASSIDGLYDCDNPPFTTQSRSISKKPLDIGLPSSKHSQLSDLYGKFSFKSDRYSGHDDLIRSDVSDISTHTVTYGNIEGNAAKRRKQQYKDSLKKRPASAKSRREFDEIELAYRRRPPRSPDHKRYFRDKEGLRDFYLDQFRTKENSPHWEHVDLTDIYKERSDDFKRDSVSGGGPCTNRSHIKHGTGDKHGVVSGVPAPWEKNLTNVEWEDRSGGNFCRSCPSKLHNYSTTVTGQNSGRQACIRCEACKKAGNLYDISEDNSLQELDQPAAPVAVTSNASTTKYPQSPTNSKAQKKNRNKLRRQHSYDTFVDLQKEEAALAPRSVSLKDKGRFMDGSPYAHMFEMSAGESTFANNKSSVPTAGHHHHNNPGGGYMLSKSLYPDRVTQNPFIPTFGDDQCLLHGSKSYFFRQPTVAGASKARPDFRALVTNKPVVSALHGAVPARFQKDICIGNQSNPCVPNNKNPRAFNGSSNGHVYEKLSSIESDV
# Sequence of Glutamate receptor ionotropic, NMDA 2A (Q12879 whole entry, one chain of several): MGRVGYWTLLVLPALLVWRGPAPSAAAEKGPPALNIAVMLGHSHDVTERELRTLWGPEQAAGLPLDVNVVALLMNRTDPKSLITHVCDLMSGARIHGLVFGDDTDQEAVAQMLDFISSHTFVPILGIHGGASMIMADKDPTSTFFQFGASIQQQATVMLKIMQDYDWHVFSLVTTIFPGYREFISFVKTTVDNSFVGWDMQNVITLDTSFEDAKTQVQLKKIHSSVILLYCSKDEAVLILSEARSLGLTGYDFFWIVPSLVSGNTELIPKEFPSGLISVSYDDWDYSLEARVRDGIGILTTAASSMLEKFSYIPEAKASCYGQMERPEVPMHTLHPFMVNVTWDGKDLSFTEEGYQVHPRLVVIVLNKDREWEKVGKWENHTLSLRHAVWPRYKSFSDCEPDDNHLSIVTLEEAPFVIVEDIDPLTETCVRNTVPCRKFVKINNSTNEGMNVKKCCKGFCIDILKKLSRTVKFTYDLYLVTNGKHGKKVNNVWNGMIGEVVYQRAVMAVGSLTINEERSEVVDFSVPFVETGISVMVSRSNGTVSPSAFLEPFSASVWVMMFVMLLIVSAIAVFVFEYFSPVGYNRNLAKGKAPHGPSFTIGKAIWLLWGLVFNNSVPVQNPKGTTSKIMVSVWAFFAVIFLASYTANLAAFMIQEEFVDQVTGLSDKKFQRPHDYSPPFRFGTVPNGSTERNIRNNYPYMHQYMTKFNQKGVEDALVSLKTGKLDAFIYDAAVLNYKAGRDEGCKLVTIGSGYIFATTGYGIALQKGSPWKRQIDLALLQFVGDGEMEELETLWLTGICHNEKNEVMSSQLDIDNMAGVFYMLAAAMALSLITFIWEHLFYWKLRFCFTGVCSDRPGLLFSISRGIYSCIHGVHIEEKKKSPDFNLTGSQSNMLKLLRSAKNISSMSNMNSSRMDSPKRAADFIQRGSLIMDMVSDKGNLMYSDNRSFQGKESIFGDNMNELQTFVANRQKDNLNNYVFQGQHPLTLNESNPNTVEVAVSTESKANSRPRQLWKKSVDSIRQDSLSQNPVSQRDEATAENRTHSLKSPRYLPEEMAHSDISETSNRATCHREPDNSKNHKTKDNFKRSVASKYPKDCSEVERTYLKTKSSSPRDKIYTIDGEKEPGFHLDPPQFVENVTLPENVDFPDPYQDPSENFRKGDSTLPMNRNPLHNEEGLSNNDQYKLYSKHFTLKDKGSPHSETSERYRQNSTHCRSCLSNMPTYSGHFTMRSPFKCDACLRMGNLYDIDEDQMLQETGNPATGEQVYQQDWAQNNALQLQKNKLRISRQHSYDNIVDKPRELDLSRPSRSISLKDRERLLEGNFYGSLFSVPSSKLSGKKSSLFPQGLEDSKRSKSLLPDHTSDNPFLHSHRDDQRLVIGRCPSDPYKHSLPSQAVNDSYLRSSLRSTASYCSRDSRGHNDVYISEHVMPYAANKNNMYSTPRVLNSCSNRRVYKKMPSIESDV
smiles,measurement,setting,value
O=C(OC1Cc2ccccc2C1)N1CCC(CNc2ncccn2)CC1,Ki,[1],23 nM
O=C(OCCc1ccccc1)N1CCC(CNc2ncccn2)CC1,Ki,[1],227 nM
O=C(OCc1ccccc1)N1CCC(Cc2nc3ccccc3[nH]2)CC1,Ki,[1],220 nM
COc1ccc(COC(=O)N2CCC(CNc3ncccn3)CC2)cc1,Ki,[1],460 nM
N#CN=C(NCc1ccccc1)NN1CCC(CNc2ncccn2)CC1,Ki,[1],3100 nM
CC(C)(C)c1ccc(COC(=O)N2CCC(CNc3ncccn3)CC2)cc1,Ki,[1],720 nM
CCc1ccc(COC(=O)N2CCC(CNc3ncccn3)CC2)cc1,Ki,[1],3.7 nM
Cc1ccc(COC(=O)N2CCC(CN(C)c3ncccn3)CC2)cc1,Ki,[1],2100 nM
Cc1ccc(COC(=O)N2CCC(COc3ncccn3)CC2)cc1,Ki,[1],7400 nM
Cc1ccccc1COC(=O)N1CCC(CNc2ncccn2)CC1,Ki,[1],227 nM
O=C(OCc1ccccc1)N1CCC(CNc2cccnc2)CC1,IC50,[2],1700 nM
same,IC50,[3],9100 nM
same,IC50,[4],12000 nM
same,Ki,[1],180 nM
O=C(OCc1ccccc1)N1CCC(CNc2cnccn2)CC1,IC50,[2],1700 nM
same,IC50,[3],22000 nM
same,IC50,[4],12000 nM
same,Ki,[1],14 nM
Cc1cccc(COC(=O)N2CCC(CNc3ncccn3)CC2)c1,Ki,[1],206 nM
O=C(OCc1ccccc1F)N1CCC(CNc2ncccn2)CC1,Ki,[1],18 nM
c1ccc(CCCN2CCC(CNc3ncccn3)CC2)cc1,Ki,[1],266 nM
O=C(OCc1ccccc1)N1CCC(CNc2ncccn2)CC1,concentration at 1 h,[5],7200 nM
same,IC50,[2],> 25000 nM
same,IC50,[3],> 25000 nM
same,IC50,[4],> 25000 nM
same,Ki,[1],23 nM
same,concentration at 1 h,[6],3100 nM
c1ccc(COc2ccc(CCNc3ccncc3)cc2)cc1,IC50,[7],130 nM
same,Ki,[1],93 nM
same,IC50,[8],102 nM
same,IC50,[9],> 20000 nM
O=C(CCc1ccccc1)N1CCC(CNc2ncccn2)CC1,Ki,[1],310 nM
O=C(OCc1ccccc1)N1CCC(CNc2nccs2)CC1,IC50,[2],> 10000 nM
same,IC50,[3],> 10000 nM
same,IC50,[4],> 10000 nM
same,Ki,[1],122 nM
O=C(NCc1ccccc1)N1CCC(CNc2ncccn2)CC1,Ki,[1],1170 nM
O=C(OCc1ccccc1)N1CCC(CNc2ccncn2)CC1,concentration at 1 h,[5],1100 nM
same,IC50,[2],1300 nM
same,IC50,[4],500 nM
same,Ki,[1],75 nM
same,concentration at 1 h,[6],700 nM
O=C(OCc1ccccc1)N1CCC(CNc2nncs2)CC1,IC50,[2],> 25000 nM
same,Ki,[1],190 nM
O=C(OCc1ccccc1)N1CCC(CNc2ccccn2)CC1,concentration at 1 h,[5],180 nM
same,IC50,[2],> 25000 nM
same,IC50,[3],> 25000 nM
same,IC50,[4],> 25000 nM
same,Ki,[1],37 nM
same,concentration at 1 h,[6],170 nM
O=C(OCc1cccc(F)c1)N1CCC(CNc2ncccn2)CC1,Ki,[1],150 nM
CC(C)c1ccc(COC(=O)N2CCC(CNc3ncccn3)CC2)cc1,Ki,[1],7.8 nM
Cc1ccc(COC(=O)N2CCC(Nc3ncccn3)CC2)cc1,Ki,[1],> 15000 nM
O=C(OCc1ccccc1)N1CCC(CNc2ccncc2)CC1,concentration at 1 h,[5],8100 nM
same,Cmax,[10],50 nM
same,half-life,[11],6.5 h
same,AUC,[12],1.7 µM·h
same,Selectivity ratio,[13],90
same,ED50,[14],3 mg/kg
same,Cmax,[15],5200 nM
same,AUC,[16],1.9 µM·h
same,half-life,[17],1.4 h
same,IC50,[2],15000 nM
same,bioavailability,[18],11%
same,IC50,[3],> 25000 nM
same,ED50,[19],10 mg/kg
same,bioavailability,[20],> 100%
same,IC50,[4],6500 nM
same,Ki,[1],10.6 nM
same,EC50,[8],1.6 nM
same,concentration at 1 h,[6],11000 nM
same,EC50,[9],> 10000 nM
O=C(OCc1ccc(F)cc1)N1CCC(CNc2ncccn2)CC1,Ki,[1],18 nM
Cc1ccc(COC(=O)N2CCC(CNc3ncccn3)CC2)cc1,Cmax,[21],600 nM
same,fraction unbound,[22],0.153
same,ED50,[23],1 mg/kg
same,Activity,[24],< 30%
same,Cmax,[10],840 nM
same,Activity,[25],< 30%
same,concentration at […],[26],960 nM
same,half-life,[27],2.2 h
same,AUC,[28],5.2 µM·h
same,Kp,[29],1.4
same,Activity,[30],Active
same,Activity,[31],< 30%
same,Activity,[32],Active
same,Cmax,[15],3900 nM
same,AUC,[16],7.1 µM·h
same,half-life,[17],2.7 h
same,Activity,[33],inactive
same,concentration at 1 h,[34],850 nM
same,bioavailability,[18],24%
same,concentration at 1 h,[35],1800 nM
same,bioavailability,[20],45%
same,Activity,[36],Active
same,half-life,[37],6.9 h
same,Activity,[38],Active
same,Activity,[39],< 30%
same,AUC,[40],7.5 µM·h
same,Ki,[1],3.4 nM
same,concentration,[41],10200 nM
same,bioavailability,[42],26%
same,Activity,[43],Active
same,EC50,[8],5.6 nM
same,concentration at […],[44],510 nM
same,Activity,[45],50%
same,Activity,[46],Active
CC(OC(=O)N1CCC(CNc2ncccn2)CC1)c1ccccc1 (racemic),Ki,[1],540 nM
